Test results as given in patent US20030166583A1, “Dermal cytochrome P450 1A inhibitors and enhancers” (priority 2002, published 2003).
Read-outs that look alike come from different tables or passages of the source.

Tests used:
[1] = test system: CYP1A; assay: in vitro; details: nude, mouse; for activity at 10 min, 1 µM / activity at 10 min, 10 µM / activity at 10 min, 100 µM: pH 7.8, dermal CYP1A activity (% of control group); for inhibition at 10 min, 100 µM: pH 7.8, inhibition of dermal CYP1A activity
Excerpt: (§1) Nude mice were sacrificed by decapitation.
(§2) The precipitate containing the microsomes was obtained.

[2] = test system: CYP1A; assay: in vitro; details: nude, mouse, pH 7.8
Protocol: (§3) Nude mice were sacrificed by decapitation. The skin and liver were immediately removed and kept in ice bath or 4° C. […] Connective tissue, blood, and fat were carefully removed from the tissue. Excess water content was removed from the homogenized tissue by tissue papers before the tissue was weighed.
(§4) The suspension of homogenized tissue in potassium chloride solution was transferred into a Teflon pestle-glass homogenizer for homogenization for six (6) times. Then, potassium chloride solution was added into the homogenized suspension to bring the volume to about four (4) times of the homogenized suspension. The diluted suspension was 5 transferred into a centrifuge tube and centrifuged at 4° C., 9000 xg, for twenty (20) minutes. The supernatant containing microsomes from skin or liver tissue and other soluble substance were removed and the volume of the supernatant was brought up to four (4) times of the weight of the tissue by adding potassium chloride solution. The diluted supernatant was transferred into a centrifuge tube and centrifuged at 4° C., 100,000 xg, for one (1) hour (Beckman L8-80M). The precipitate containing the microsomes was obtained. Potassium chloride solution was added into the precipitate to bring the volume up to four (4) times of the weight of the tissue, and the suspension was centrifuged at 4° C., 100,000 xg for one (1) hour, to obtain the washed microsomes, which were stored at −78° C. in 0.1M KH2PO4-K2HPO4 buffer (pH=7.4).
(§5) The enzymatic activity of CYP1A was determined based on the activity of 7-ethoxyresorufin-O-deethylase (i.e., for CYP1A) and 7-methoxyresorufin-O-demethylase (i.e., CYP1A2). […] Except for the blank group, the reaction was triggered by adding 0.54 μM NADPH. In the test tube (16×100 mm), the reaction was carried out for ten (10) minutes at constant temperature (37° C.) with vibration and without light Methanol 2.5 ml was added into the reaction mixture to stop the reaction. Protein precipitate was removed from the reaction mixture by centrifuging the reaction mixture at 180 xg for ten (10) minutes. The supernatant was tested for florescent intensity with 550 nm as the excitation wavelength and 585 nm the emission wavelength. The florescent intensity was compared with 0.01 μM-0.1 μM standard Rhodamine B solution to obtain the reading of the CYP1A enzyme activity.

[3] = test system: dermal CYP1A; assay: in vitro
Excerpt: as §1, §2

[4] = test system: liver CYP1A
Protocol: as §3, §4, §5

activity at 10 min, 1 µM [1]	activity at 10 min, 10 µM [1]	activity at 10 min, 100 µM [1]	inhibition at 10 min, 100 µM [1]	activity at 10 min, 1 µM [2]	activity at 10 min, 10 µM [2]	activity at 10 min, 100 µM [2]	dose dependence of the inhibitory effect on dermal CYP1A [3]	inhibition of dermal microsomal CYP1A activity [3]	dermal CYP1A activity (% of control group) ([3]; 100 µM)	liver CYP1A activity (% of control group) ([4]; 1 µM)	liver CYP1A activity (% of control group) ([4]; 10 µM)	liver CYP1A activity (% of control group) ([4]; 100 µM)	Compound
117%	110%	86.6%	~13%	109%	103%	101%	–	–	–	–	–	–	O=C(O)/C=C/c1ccccc1 [Trans-cinnamic acid]
–	–	–	–	–	–	–	dose-dependent	more than 90%	0.83%	32.91%	11.06%	7.77%	O=c1cc(-c2ccccc2)oc2c1ccc1ccccc12 [Alpha-NF, α-naphthoflavone]
103%	97.2%	76.4%	~24%	118%	–	53.5%	–	–	–	–	–	–	O=c1cc(-c2ccc(O)cc2)oc2cc(O)cc(O)c12 [Apigenin]
